From PubChem BioAssay (NCI) come the findings set out here.

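Assay format: 96-well plates, 48-hour exposure. GI50: concentration for 50% inhibition of growth. TGI: total growth inhibition.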

What is called GI50 is the concentration at which growth is held to half of that of the control. The term TGI denotes the concentration giving total growth inhibition. A high value points to lower sensitivity of the cells.

Test systems include CCRF-CEM leukemia; NCI-H522 lung; SK-MEL-28 melanoma; UO-31 renal; RXF 393 renal; SF-268 CNS; BT-549 breast; U251 CNS; OVCAR-3 ovarian; SF-295 CNS.
Common to all, as to test: DTP human tumour cell line panel, 48 h

Take `CCN(CC)C(=S)[S][Bi]([S]C(=S)N(CC)CC)[S]C(=S)N(CC)CC`: the concentration for 50% growth inhibition (GI50) is 19.3 nM with CCRF-CEM leukemia; 15.7 nM with NCI-H522 lung; 218 nM with SK-MEL-28 melanoma; 216 nM in the assay on UO-31 renal; 183 nM in the assay with RXF 393 renal; 455 nM in the assay on SF-268 CNS. In addition, the concentration for 50% growth inhibition (GI50) in the assay with BT-549 breast is 203 nM; with U251 CNS, 1120 nM; with OVCAR-3 ovarian, 52.5 nM; in the assay on SF-295 CNS, 1730 nM. Moreover, the TGI in the assay with NCI-H522 lung is 33.2 nM; with SK-MEL-28 melanoma, 492 nM; with UO-31 renal, 468 nM; in the assay on RXF 393 renal, 360 nM; with SF-268 CNS, 1770 nM; in the assay on BT-549 breast it was 384 nM. Further, the TGI in the assay on U251 CNS turned out to be 2340 nM; with OVCAR-3 ovarian, 174 nM; in the assay on SF-295 CNS it was 3160 nM.
`O=C(CCc1ccc(O)cc1)N/N=C/c1cc(Br)ccc1O`: the GI50 with CCRF-CEM leukemia was 2500 nM; with NCI-H522 lung, 3730 nM; in the assay with SK-MEL-28 melanoma, 5720 nM; in the assay with UO-31 renal it was 1340 nM; with RXF 393 renal, 6510 nM; in the assay with SF-268 CNS, 2230 nM. Also, the GI50 with BT-549 breast was 4190 nM; with U251 CNS it was 3200 nM; in the assay on OVCAR-3 ovarian it was 4030 nM; with SF-295 CNS, 3250 nM. The concentration for total growth inhibition (TGI) is 12600 nM with CCRF-CEM leukemia; 18100 nM in the assay with NCI-H522 lung; above 100000 nM in the assay with SK-MEL-28 melanoma; 7190 nM in the assay with UO-31 renal; above 100000 nM in the assay with RXF 393 renal; 24400 nM in the assay with SF-268 CNS. Further, the TGI with BT-549 breast was 44800 nM; in the assay with U251 CNS, above 100000 nM; with OVCAR-3 ovarian, 23600 nM; in the assay on SF-295 CNS it was above 100000 nM.
On to `CS(=O)(=O)N(c1cc(-c2ccc3ncnc(Nc4cccc(Cl)c4)c3c2)cnc1Cl)S(C)(=O)=O`, for which the GI50 with CCRF-CEM leukemia was 520 nM; in the assay on NCI-H522 lung, 645 nM; in the assay with SK-MEL-28 melanoma, 306 nM; in the assay with UO-31 renal it was 232 nM; in the assay with RXF 393 renal, 231 nM; in the assay with SF-268 CNS, 490 nM. Further, the GI50 in the assay on BT-549 breast is 318 nM; with U251 CNS it was 782 nM; with OVCAR-3 ovarian, 333 nM; in the assay on SF-295 CNS, 542 nM. In addition, the total growth inhibition concentration (TGI) worked out at 89300 nM with CCRF-CEM leukemia; 7740 nM in the assay with NCI-H522 lung; 11100 nM in the assay on SK-MEL-28 melanoma; 2520 nM with UO-31 renal; 910 nM in the assay on RXF 393 renal; 12700 nM with SF-268 CNS. The TGI amounted to 3030 nM with BT-549 breast, 8070 nM in the assay on U251 CNS, 1880 nM in the assay with OVCAR-3 ovarian and 3170 nM in the assay on SF-295 CNS.
For `C/C(=N\NC(=S)N(C)C)c1ccccn1`, the 50% growth inhibitory concentration (GI50) is 0.277 nM in the assay on CCRF-CEM leukemia; 166 nM in the assay with UO-31 renal; 2.45 nM with U251 CNS; 0.474 nM in the assay on OVCAR-3 ovarian; 12 nM with SF-295 CNS. Further, the TGI with CCRF-CEM leukemia was 232 nM; in the assay with NCI-H522 lung it was 1980 nM; in the assay with SK-MEL-28 melanoma it was 20600 nM; in the assay with UO-31 renal it was 3910 nM; in the assay on RXF 393 renal, 13400 nM; with SF-268 CNS, 11700 nM. Besides, the TGI in the assay with BT-549 breast was found to be 9590 nM; in the assay with U251 CNS it was 6730 nM; in the assay on SF-295 CNS it was 13100 nM.
Take `Oc1c(CN2CCN(c3ccccc3)CC2)cc(Br)c2cccnc12`: the total growth inhibition concentration (TGI) is above 100000 nM with CCRF-CEM leukemia; 36800 nM in the assay on NCI-H522 lung; above 100000 nM in the assay on SK-MEL-28 melanoma; above 30500 nM with UO-31 renal; 13500 nM in the assay with RXF 393 renal; above 71000 nM with SF-268 CNS. The total growth inhibition concentration (TGI) is above 100000 nM in the assay on BT-549 breast, 7870 nM in the assay on U251 CNS, above 79500 nM with OVCAR-3 ovarian and above 95000 nM with SF-295 CNS.
Take `CCCCCCCCCCCCCCCC1=NC(C)(C)CN1C(C)C`: the GI50 was 1410 nM in the assay on CCRF-CEM leukemia; 1550 nM in the assay with NCI-H522 lung; 1640 nM with SK-MEL-28 melanoma; 1440 nM in the assay on UO-31 renal; 1520 nM with RXF 393 renal; 1470 nM in the assay on SF-268 CNS. The GI50 is 5120 nM with BT-549 breast, 1510 nM in the assay with U251 CNS, 824 nM in the assay on OVCAR-3 ovarian and 1740 nM with SF-295 CNS. Further, the TGI in the assay with CCRF-CEM leukemia amounted to 3470 nM; in the assay with NCI-H522 lung, 3020 nM; in the assay with SK-MEL-28 melanoma it was 3000 nM; with UO-31 renal, 2840 nM; with RXF 393 renal, 2960 nM; with SF-268 CNS, 2790 nM. In addition, the TGI in the assay with BT-549 breast came to 23700 nM; with U251 CNS, 2840 nM; with OVCAR-3 ovarian, 2090 nM; in the assay on SF-295 CNS, 3300 nM.
On to `O=c1oc2c(C(F)(F)F)cccc2cc1-c1csc(Nc2ccc(OCCF)cc2)n1`, for which the concentration for 50% growth inhibition (GI50) was 35.3 nM with CCRF-CEM leukemia; 21.6 nM in the assay with NCI-H522 lung; 1320 nM in the assay with SK-MEL-28 melanoma; 78.5 nM with UO-31 renal; 34.3 nM with RXF 393 renal; 86 nM in the assay with SF-268 CNS. For the same molecule, the GI50 in the assay on BT-549 breast is 38.7 nM; with U251 CNS it was 37.6 nM; in the assay with OVCAR-3 ovarian, 35.7 nM; in the assay on SF-295 CNS, 28.6 nM. In addition, the TGI with CCRF-CEM leukemia was above 69200 nM; in the assay with NCI-H522 lung, 76.6 nM; in the assay with SK-MEL-28 melanoma it was above 66400 nM; in the assay with UO-31 renal it was 22500 nM; with RXF 393 renal it was 18200 nM; in the assay on SF-268 CNS it was above 60500 nM. For the same molecule, the concentration for total growth inhibition (TGI) turned out to be 6340 nM in the assay on BT-549 breast, 12000 nM in the assay with U251 CNS, 5750 nM in the assay on OVCAR-3 ovarian and 12700 nM in the assay on SF-295 CNS.
As for `Cn1cc(C2=C(N3CCOCC3)C(=O)NC2=O)c2ccccc21`, the GI50 in the assay with CCRF-CEM leukemia, in the assay with NCI-H522 lung, in the assay with SK-MEL-28 melanoma, in the assay with UO-31 renal, with RXF 393 renal and with SF-268 CNS was above 25000 nM throughout. The GI50 in the assay on BT-549 breast, with U251 CNS, with OVCAR-3 ovarian and with SF-295 CNS was above 25000 nM in each case. The concentration for total growth inhibition (TGI) with CCRF-CEM leukemia, in the assay on NCI-H522 lung, in the assay with SK-MEL-28 melanoma, with UO-31 renal, with RXF 393 renal and in the assay with SF-268 CNS was above 25000 nM in each case. For the same molecule, the total growth inhibition concentration (TGI) in the assay on BT-549 breast, in the assay with U251 CNS, in the assay with OVCAR-3 ovarian and with SF-295 CNS was above 25000 nM throughout.
